Experimental data published in patent publication EP4745134A1 (Jiangsu Yahong Meditech Co., Ltd., priority 2023, dated 2025).
Where two headings read alike, the source gives them in different places.

How the values were obtained:
PRMT5-MTA = PRMT5-MTA (Homo sapiens, UniProt O14744); test: Enzymatic inhibitory activity against PRMT5-MTA (AlphaScreen); format: biochemical
How it was run: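 PRMT5/[…] (1 nM) was preincubated for 30 min at room temperature with 1 µM […] and 2.5 µM SAM, then exposed to compound (10-point, 3-fold from 1000 nM) for 15 min at 23 °C. Histone H4 substrate (5 nM) was added and reacted for 45 min at 23 °C. Symmetric dimethyl-R3 H4 was detected by AlphaScreen and IC50 calculated.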

HCT116 MTAP KO cells = test: Inhibitory activity against cell proliferation (CellTiter Glo, 6 days), HCT116 MTAP KO; format: cell-based; details: for IC50: Homo sapiens, HCT-116, 144 h, HCT116 MTAP KO cells, 6 days, CellTiter Glo, read-out: HCT116 MTAP KO IC50; for Selectivity HCT 116-WT/ HCT116 MTAP KO: ratio of IC50 HCT116-WT / HCT116 MTAP KO
How it was run: (§1)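 250 cells/well, McCoy's 5A + 10% FBS, o/n 37°C 5% CO2; cpd 8-pt 4-fold from 10000 nM, 6 d; CTG lum on day 7; IC50 vs DMSO.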

HCT116-WT cells = test: Inhibitory activity against cell proliferation (CellTiter Glo, 6 days), HCT116-WT; format: cell-based; details: 144 h, HCT116-WT cells, 6 days, CellTiter Glo; read-out: HCT116-WT IC50
How it was run: as §1

Sequence of PRMT5-MTA (O14744 whole entry): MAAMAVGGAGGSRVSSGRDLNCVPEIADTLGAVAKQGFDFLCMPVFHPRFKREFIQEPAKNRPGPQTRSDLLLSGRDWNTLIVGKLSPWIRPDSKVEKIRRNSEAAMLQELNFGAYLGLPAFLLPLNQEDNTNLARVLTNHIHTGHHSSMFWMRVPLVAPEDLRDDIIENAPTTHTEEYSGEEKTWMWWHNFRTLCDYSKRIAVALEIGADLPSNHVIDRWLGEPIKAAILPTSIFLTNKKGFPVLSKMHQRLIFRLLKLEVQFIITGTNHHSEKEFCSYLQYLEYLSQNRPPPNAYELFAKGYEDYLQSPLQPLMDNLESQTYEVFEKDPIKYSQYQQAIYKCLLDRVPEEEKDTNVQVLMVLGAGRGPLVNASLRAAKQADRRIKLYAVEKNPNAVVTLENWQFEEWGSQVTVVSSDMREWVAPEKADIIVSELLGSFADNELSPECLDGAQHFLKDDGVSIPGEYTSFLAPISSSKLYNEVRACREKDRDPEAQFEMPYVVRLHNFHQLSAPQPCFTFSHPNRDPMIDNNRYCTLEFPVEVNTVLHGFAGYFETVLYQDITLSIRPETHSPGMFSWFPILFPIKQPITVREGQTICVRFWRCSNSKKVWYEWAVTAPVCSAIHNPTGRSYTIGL
Sequence of PRMT5-MTA (Q9BQA1 whole entry partner): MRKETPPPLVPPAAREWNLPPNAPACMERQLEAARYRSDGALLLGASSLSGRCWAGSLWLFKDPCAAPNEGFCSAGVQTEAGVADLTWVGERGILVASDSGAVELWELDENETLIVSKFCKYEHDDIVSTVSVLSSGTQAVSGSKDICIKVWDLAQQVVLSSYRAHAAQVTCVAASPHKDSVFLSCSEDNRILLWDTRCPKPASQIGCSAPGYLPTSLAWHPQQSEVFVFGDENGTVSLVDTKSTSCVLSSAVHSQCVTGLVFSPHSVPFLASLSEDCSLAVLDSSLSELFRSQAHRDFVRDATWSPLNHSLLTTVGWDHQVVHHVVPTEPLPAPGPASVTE

Structure (SMILES) | IC50 (PRMT5-MTA; read-out: IC50) | IC50 (HCT116 MTAP KO cells) | Selectivity HCT 116-WT/ HCT116 MTAP KO (HCT116 MTAP KO cells) | IC50 (HCT116-WT cells) | IC50 (PRMT5-MTA)
Cc1cc2nc(N)c3cnn(C)c3c2cc1C(=O)N1CCCCN1c1ccc(C(F)(F)F)cn1 [Example 343, (4-amino-1,7-dimethyl-1H-pyrazolo[4,3-c]quinolin-8-yl)(2-(5-(trifluoromethyl)pyridin-2-yl)tetrahydropyridazin-1 (2H)-yl) methanone] | 3.9 nM | 212 nM | 22.90 | 4860 nM | –
Cn1ncc2c(N)nc3cc(Cl)c(C(=O)N4CC5(CC5)CN4c4ncc(Br)cc4F)cc3c21 [Example 345, (4-amino-7-chloro-1-methyl-1H-pyrazolo [4,3-c]quinolin-8-yl)(6-(5-bromo-3-fluor opyridin-2-yl)-5,6-diazaspiro[2.4]heptan-5-yl)methanone] | 4.4 nM | 44 nM | 17.57 | 773 nM | –
Cc1cc2nc(N)c3cnn(C)c3c2cc1C(=O)N1CC(C)CN1c1ccc(F)cn1 (centres unmarked) [Example 346, (4-amino-1,7-dimethyl-1H-pyrazolo[4,3-c]quinolin-8-yl)(2-(5-fluoropyridin-2-yl)-4-methylpyrazolidin-1-yl)methanone] | 3.6 nM | 53 nM | 41.25 | 2190 nM | –
Cn1ncc2c(N)nc3cc(Cl)c(C(=O)N4CC5(CC5)CN4c4ncc(Cl)cc4F)cc3c21 [Example 347, (4-amino-7-chloro-1-methyl-1H-pyrazolo [4,3-c]quinolin-8-yl)(6-(5-chloro-3-fluoropyridin-2-yl)-5,6-diazaspiro[2.4]heptan-5-yl)methanone] | 7.1 nM | 32 nM | 39.88 | 1280 nM | –
Cc1cc2nc(N)c3cnn(C)c3c2cc1C(=O)N1CC2(CCC2)CN1c1ncccc1F [Example 348, (4-amino-1,7-dimethyl-1H-pyrazolo[4,3-c]quinolin-8-yl)(7-(3-fluoropyridin-2-yl)-6,7-diazaspiro[3.4]octan-6-yl)methanone] | 7.5 nM | 6.9 nM | 30.14 | 208 nM | –
Cc1cc2nc(N)c3cnn(C)c3c2cc1C(=O)N1CC(C(F)(F)F)CN1c1ncccc1F (centres unmarked) [Example 350, (4-amino-1,7-dimethyl-1H-pyrazolo[4,3-c]quinolin-8-yl)(2-(3-fluoropyridin-2-yl)-4-(trifluoromethyl)pyrazolidin-1-yl)methanone] | 3.5 nM | 29 nM | 35.38 | 1030 nM | –
Cn1ncc2c(N)nc3cc(Cl)c(C(=O)N4CC(C(F)(F)F)CN4c4ncccc4F)cc3c21 (centres unmarked) [Example 351, (4-amino-7-chloro-1-methyl-1H-pyrazolo [4,3-c]quinolin-8-yl)(2-(3-fluoropyridin-2-yl)-4-(trifluoromethyl)pyrazolidin-1-yl) methanone] | 4.9 nM | 85 nM | 21.59 | 1840 nM | –
Cc1cc2nc(N)c3cnn(C)c3c2cc1C(=O)N1CC(C(F)(F)F)CN1c1cccc(F)n1 (centres unmarked) [Example 352, (4-amino-1,7-dimethyl-1H-pyrazolo[4,3-c]quinolin-8-yl)(2-(6-fluoropyridin-2-yl)-4-(trifluoromethyl)pyrazolidin-1-yl)meth anone] | 12.5 nM | 77 nM | 29.42 | 2260 nM | –
Cn1ncc2c(N)nc3cc(Cl)c(C(=O)N4CC(C(F)(F)F)CN4c4cccc(F)n4)cc3c21 (centres unmarked) [Example 353, (4-amino-7-chloro-1-methyl-1H-pyrazolo [4,3-c]quinolin-8-yl)(2-(6-fluoropyridin-2-yl)-4-(trifluoromethyl)pyrazolidin-1-yl) methanone] | 6.3 nM | 108 nM | 16.81 | 1820 nM | –
Cc1cc2nc(N)c3cnn(C)c3c2cc1C(=O)N1CC(=O)CN1c1ncccc1F [Example 354, 1-(4-amino-1,7-dimethyl-1H-pyrazolo[4,3-c]quinoline-8-carbonyl)-2-(3-fluoropyridin-2-yl)pyrazolin-4-one] | 3.8 nM | 62 nM | 40.76 | 2530 nM | –
COCC1CN(C(=O)c2cc3c(cc2C)nc(N)c2cnn(C)c23)N(c2ncccc2F)C1 (centres unmarked) [Example 357] | – | 16 nM | 53.25 | 852 nM | 3.4 nM
Cc1cc2nc(N)c3cnn(C)c3c2cc1C(=O)N1CC(CO)CN1c1ncccc1F (centres unmarked) [Example 358, (4-amino-1,7-dimethyl-1H-pyrazolo[4,3-c]quinolin-8-yl)(2-(3-fluoropyridin-2-yl)-4-(hydroxymethyl)pyrazolidin-1-yl)methanone] | 6.7 nM | 303 nM | >33.00 | > 10000 nM | –
Cn1ncc2c(N)nc3cc(Cl)c(C(=O)N4CC(CF)CN4c4ncccc4F)cc3c21 (centres unmarked) [Example 359, (4-amino-7-chloro-1-methyl-1H-pyrazolo[4,3-c]quinolin-8-yl)(4-(fluoromethyl)-2-(3-fluoropyridin-2-yl)pyrazolin-1-yl)methanone] | – | 50 nM | 23.50 | 1180 nM | 2.7 nM
Cc1cc2nc(N)c3cnn(C)c3c2cc1C(=O)N1CC(C)CN1c1cccc(F)n1 (centres unmarked) [Example 360, (4-amino-1,7-dimethyl-1H-pyrazolo[4,3-c]quinolin-8-yl)(2-(6-fluoropyridin-2-yl)-4-methylpyrazolidin-1-yl)methanone] | 5.2 nM | 23 nM | 50.74 | 1170 nM | –
Cc1cc2nc(N)c3cnn(C)c3c2cc1C(=O)N1CC(C)CN1c1cccc(C#N)n1 (centres unmarked) [Example 365, 6-(2-(4-amino-1,7-dimethyl-1H-pyrazolo [4,3-c]quinoline-8-formyl)-4-methylpyrazolidin-1-yl)pyridinecarbonitrile] | 3.2 nM | 35 nM | 48.37 | 1690 nM | –
Cc1cc2nc(N)c3cnn(C)c3c2cc1C(=O)N1CC2(CC2)CN1c1ncccc1F [Example 366, (4-amino-1,7-dimethyl-1H-pyrazolo[4,3-c]quinolin-8-yl)(6-(3-fluoropyridin-2-yl)-5,6-diazaspiro[2.4]heptan-5-yl)methanone] | 7.9 nM | 7.7 nM | 41.43 | 319 nM | –
CC1CN(C(=O)c2ccc3nc(N)c4cnn(C)c4c3c2)N(c2ncccc2F)C1 (centres unmarked) [Example 367, (4-amino-1-methyl-1H-pyrazolo[4,3-c]quinolin-8-yl)(2-(3-fluoropyridin-2-yl)-4-methylpyrazolidin-1-yl)methanone] | 4.1 nM | 106 nM | 49.62 | 5260 nM | –
Cc1cc2nc(N)c3cnn(C)c3c2cc1C(=O)N1CC(C)CN1c1ccccn1 (centres unmarked) [Example 368, (4-amino-1,7-dimethyl-1H-pyrazolo[4,3-c]quinolin-8-yl)(4-methyl-2-(pyridin-2-yl)pyrazolidin-1-yl)methanone] | 4.7 nM | 37 nM | 78.51 | 2900 nM | –
Cc1cc2nc(N)c3cnn(C)c3c2cc1C(=O)N1CC(C)CN1c1ncccc1Cl (centres unmarked) [Example 369, (4-amino-1,7-dimethyl-1H-pyrazolo[4,3-c]quinolin-8-yl)(2-(3-chloropyridin-2-yl)-4-methylpyrazolidin-1-yl)methanone] | 3.9 nM | 84 nM | 32.12 | 2700 nM | –
Cc1cc2nc(N)c3cnn(C)c3c2cc1C(=O)N1CC(C)CN1c1ncccc1Br (centres unmarked) [Example 370, (4-amino-1,7-dimethyl-1H-pyrazolo[4,3-c]quinolin-8-yl)(2-(3-bromopyridin-2-yl) -4-methylpyrazolidin-1-yl)methanone] | 5.7 nM | 118 nM | 29.42 | 3470 nM | –
Cc1cc2nc(N)c3cnn(C)c3c2cc1C(=O)N1CC(C)CN1c1cc(F)ccn1 (centres unmarked) [Example 372, (4-amino-1,7-dimethyl-1H-pyrazolo[4,3-c]quinolin-8-yl)(2-(4-fluoropyridin-2-yl)-4-methylpyrazolidin-1-yl)methanone] | 3.4 nM | 83 nM | 30.42 | 2520 nM | –
Cc1cc2nc(N)c3cnn(C)c3c2cc1C(=O)N1CCC(C)N1c1ncccn1 (centres unmarked) [Example 374, (4-amino-1,7-dimethyl-1H-pyrazolo[4,3-c]quinolin-8-yl)(3-methyl-2-(pyrimidin-2-yl)pyrazolidin-1-yl)methanone] | 8.1 nM | 210 nM | – | > 10000 nM | –
Cc1cc2nc(N)c3cnn(C)c3c2cc1C(=O)N1CCCN1c1ccc(C(F)(F)F)cc1 [Example 377, (4-amino-1,7-dimethyl-1H-pyrazolo[4,3-c]quinolin-8-yl)(2-(4-(trifluoromethyl)phenyl)pyrazolidin-1-yl)methanone] | 3.1 nM | 311 nM | 13.85 | 4310 nM | –
Cc1cc2nc(N)c3cnn(C)c3c2cc1C(=O)N1CC(C)CN1c1ccccc1C(F)(F)F (centres unmarked) [Example 378, (4-amino-1,7-dimethyl-1H-pyrazolo[4,3-c]quinolin-8-yl)(4-methyl-2-(2-(trifluoromethyl)phenyl)pyrazolidin-1-yl)methanone] | 6.6 nM | 316 nM | 21.39 | 6760 nM | –
